Earlier results as cited in US20180256556A1, “METHODS FOR TREATING AN IMPAIRMENT IN GAIT AND/OR BALANCE IN PATIENTS WITH MULTIPLE SCLEROSIS USING AN AMINOPYRIDINE” (Acorda Therapeutics, Inc., priority 2012, published 2018).

What was measured:
[1] = system: patients with multiple sclerosis; conditions: p<0.05
potassium channels = conditions: high concentration (millimolar)

Nc1ccncc1 [4-AP, 4-aminopyridine]
Leg strength (LEMMT) relative to placebo [1]: statistically significantly improved
Potassium channel blocking activity (potassium channels): broad-spectrum blocker of potassium channels
